Laboratory results taken from US4983616A, “Hexahydropyrrolo(2,3-B)indole carbamates, ureas, amides and related compounds” (priority 1990, dated 1991).
Structures can show the parent of a compound that is named as a salt. Where two headings read alike, the source gives them in different places.

Experiments:
[1] = test system: Scopolamine Induced Memory Deficit; type: in vivo, mice
Experimental: In this assay mice are tested for their ability to remember an unpleasant stimulus for a period of 24 hours. A mouse is placed in a chamber that contains a dark compartment; a strong incandescent light drives it to the dark compartment, where an electric shock is administered through metal plates on the floor. The animal is removed from the testing apparatus and tested again, 24 hours later, for the ability to remember the electric shock.
If scopolamine, an anticholinergic that is known to cause memory impairment, is administered before an animal's initial exposure to the test chamber, the animal re-enters the dark compartment shortly after being placed in the test chamber 24 hours later. This effect of scopolamine is blocked by an active test compound, resulting in a greater interval before re-entry into the dark compartment.
The results for an active compound are expressed as the percent of a group of animals in which the effect of scopolamine is blocked, as manifested by an increased interval between being placed in the test chamber and re-entering the dark compartment.
Results of this assay for some of the compounds of this invention and those for tacrine and pilocarpine (reference compounds) are presented in Table 2.

[2] = target: T1, Brain AChE (acetylcholinesterase, rat striatum) (Rattus norvegicus, UniProt P37136); test: In Vitro Inhibition of Acetylcholinesterase Activity in Rat Striatum; type: biochemical, rat (male Wistar)
T1 construct: corpora striata dissected free, weighed and homogenized in 19 volumes; from tissue; host or cells: corpora striata of male Wistar rats, whole homogenate
T1 sequence (P37136 32-614): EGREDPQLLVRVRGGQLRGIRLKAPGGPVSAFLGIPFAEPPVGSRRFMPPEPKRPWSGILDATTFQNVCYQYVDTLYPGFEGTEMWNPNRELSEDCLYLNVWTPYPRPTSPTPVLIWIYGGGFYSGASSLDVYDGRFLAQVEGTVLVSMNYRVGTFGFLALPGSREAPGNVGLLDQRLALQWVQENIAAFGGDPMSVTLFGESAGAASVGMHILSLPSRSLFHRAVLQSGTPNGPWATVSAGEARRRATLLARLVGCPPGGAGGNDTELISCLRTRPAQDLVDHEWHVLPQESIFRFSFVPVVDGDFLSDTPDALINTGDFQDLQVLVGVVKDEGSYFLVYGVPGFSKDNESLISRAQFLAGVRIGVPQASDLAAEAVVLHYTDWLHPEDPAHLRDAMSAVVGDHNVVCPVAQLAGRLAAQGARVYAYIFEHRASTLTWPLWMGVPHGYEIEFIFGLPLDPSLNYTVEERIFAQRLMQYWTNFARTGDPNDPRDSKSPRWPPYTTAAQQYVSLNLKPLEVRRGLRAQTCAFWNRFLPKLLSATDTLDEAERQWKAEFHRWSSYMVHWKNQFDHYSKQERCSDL
Experimental: Cholinesterases are found throughout the body, both in the brain and in serum. However, only brain acetylcholinesterase (AChE) distribution is correlated with central cholinergic innervation.
In Vitro Inhibition of Acetylcholinesterase Activity in Rat Striatum
The method described below was used in this invention for assaying cholinesterase activity.
1. 0.05M Phosphate buffer, pH 7.2
(a) 6.85 g NaH2 PO4 .cndot.H2 O/100 ml distilled H2 O
(c) add (a) to (b) until pH reaches 7.2
(a) 9.9 mg 5,5-dithiobisnitrobenzoic acid (DTNB) (0.25 mM)
(b) 99 mg s-acetylthiocholine chloride (5 mM)
(c) q.s. to 100 ml with 0.05M phosphate buffer, pH 7.2 (reagent 1)
3. […]
Following the 10 minute preincubation of the tissue (enzyme) with the inhibitor, the samples are mixed with the substrate chromogen buffer by the ABA-100. Using the indicated instrument settings the ABA-100 automatically reads the color reaction and prints out the results in enzyme units after 15 minutes.
2. The enzyme activity can also be measured with Gilford 250 spectrophotometer. […]
The uninhibited activity of the enzyme (tissue homogenate) is first determined. […] The reaction rate is determined by the slope of the recorded absorbance change. […]

[3] = 5.0 mg/kg of body weight, s.c, mice, 24 hours
[4] = 0.31 mg/kg of body weight, s.c, mice, 24 hours

CN1CCC2(C)c3cc(NC(=O)OCc4ccccc4)ccc3N(C)C12 (stereo not shown) [5-(Benzoxycarbonylamino)-1,2,3,3a,8,8a-hexahydro-1,3a,8-trimethylpyrrolo[2,3-b]indole]
% of Animals with Scopolamine Induced Memory Deficit Reversal ([1]; 0.3 mg/kg of body weight, s.c, mice, 24 hours): 28%
% of Animals with Scopolamine Induced Memory Deficit Reversal ([1]; 1.0 mg/kg of body weight, s.c, mice, 24 hours): 21%
% of Animals with Scopolamine Induced Memory Deficit Reversal ([1]; 3.0 mg/kg of body weight, s.c, mice, 24 hours): 21%

Nc1c2c(nc3ccccc13)CCCC2 [Tacrine, reference compound]
% of Animals with Scopolamine Induced Memory Deficit Reversal ([1]; mouse, in vivo): 13%

CC[C@@H]1C(=O)OC[C@@H]1Cc1cncn1C [Pilocarpine, reference compound]
% of Animals with Scopolamine Induced Memory Deficit Reversal [1, 3]: 13%

CN1CCC2(C)c3cc(NC(=O)OC(C)(C)C)ccc3N(C)C12.O=C(O)C(=O)O (stereo not shown) [5-(t-Butoxycarbonylamino)-1,2,3,3a,8,8a-hexahydro-1,3a,8-trimethylpyrrolo[2,3-b]indole oxalate]
% of Animals with Scopolamine Induced Memory Deficit Reversal [1, 4]: 33%
% of Animals with Scopolamine Induced Memory Deficit Reversal ([1]; 1.25 mg/kg of body weight, s.c, mice, 24 hours): 20%
% of Animals with Scopolamine Induced Memory Deficit Reversal [1, 3]: 27%

CN1CCC2(C)c3cc(NC(=O)Oc4ccccc4)ccc3N(C)C12.O=C(O)C(=O)O (stereo not shown) [1,2,3,3a,8,8a-Hexahydro-5-(phenoxycarbonylamino)-1,3a,8-trimethylpyrrolo[2,3-b]indole oxalate]
IC50 [2]: 14 µM
% of Animals with Scopolamine Induced Memory Deficit Reversal [1, 4]: 40%
% of Animals with Scopolamine Induced Memory Deficit Reversal ([1]; 1.16 mg/kg of body weight, s.c, mice, 24 hours): 53%
% of Animals with Scopolamine Induced Memory Deficit Reversal [1, 3]: 21%

CN1CCC2(C)c3cc(NC(=O)Oc4ccc(Cl)cc4)ccc3N(C)C12 (stereo not shown) [5-(4-Chlorophenoxycarbonylamino)-1,2,3,3a,8,8a-hexahydro-1,3a,8-trimethylpyrrolo[2,3-b]indole oxalate]
IC50 [2]: 1.1 µM
